Earlier results, collected in US7973084B2, “Molecular transporters based on alditol or inositol and processes for the preparation thereof” (Postech Academy-Industrial Foundation, priority 2005, dated 2011).

Tested on: Jurkat cells

For D-arginine nonamer, the “uptake by Jurkat cells” value (determined using FACS) is listed as “much more effective”.
For L-arginine nonamer, the “effectiveness in the transportation across a biological membrane relative to Tat protein (49-57 a.a.)” value (compared with Tat protein (49-57 a.a.)) is listed as 20 times.
